# Measurements reported in patent publication US11312727B1, “Macrocyclic flu endonuclease inhibitors” (Janssen BioPharma, Inc., priority 2018, dated 2022).
# Read-outs that look alike come from different tables or passages of the source.
# Assays:
# [1] = in vitro; details: human, CC50, uninfected A549 cells, CellTiter-Glo
# [2] = test system: Influenza strain A549 A/WSN/33 (H1N1); experiment: microbe, parasite or virus in culture; format: cell-based; details: A549 cells, influenza A/WSN/33 (H1N1), 20 hours incubation, read-out: A549_A(H1N1) EC50
SMILES,CC50 [1] [nM],"EC50 ([2]; Influenza A virus, A549, 20 h) [nM]",EC50 [2] [nM]
"O=C1c2c(O)c(=O)ccn2N2CN1C/C=C\COc1ccccc1[C@H]2c1ccc(F)cc1 (single isomer, unassigned) [Compound 47A, (18*R,Z)-18-(4-fluorophenyl)-12-hydroxy-6,9-dihydro-18H-10,17-methanobenzo[b]pyrido[1,2-f][1]oxa[5,6,9]triazacyclotridecine-11,13-dione]",> 2000,> 1000,–
"O=C1c2c(O)c(=O)ccn2N2CN1C/C=C\COc1ccccc1[C@@H]2c1ccc(F)cc1 (single isomer, unassigned) [Compound 47B, (18*S,Z)-18-(4-fluorophenyl)-12-hydroxy-6,9-dihydro-18H-10,17-methanobenzo[b]pyrido[1,2-f][1]oxa[5,6,9]triazacyclotridecine-11,13-dione]",> 200,15,–
"O=C1c2c(O)c(=O)ccn2N2CN1CCCCCOc1cccc3c1[C@H]2c1ccccc1SC3 (single isomer, unassigned) [Compound 48A]",> 2000,–,> 1000
"O=C1c2c(O)c(=O)ccn2N2CN1CCCCCOc1cccc3c1[C@@H]2c1ccccc1SC3 (single isomer, unassigned) [Compound 48B]",> 2000,–,27
"O=C1c2c(O)c(=O)ccn2N2CN1C/C=C\COc1ccc(Cl)cc1[C@H]2c1ccccc1 (single isomer, unassigned) [Compound 51A]",> 2000,> 1000,–
"O=C1c2c(O)c(=O)ccn2N2CN1C/C=C\COc1ccc(Cl)cc1[C@@H]2c1ccccc1 (single isomer, unassigned) [Compound 51B]",> 2000,10,–
"O=C1c2c(O)c(=O)ccn2N2CN1C/C=C\COc1cccc3c1[C@H]2c1ccccc1OC3 (single isomer, unassigned) [Compound 53A, (21a*R,Z)-16-hydroxy-6,10,13,21a-tetrahydro-7,8-(epiprop[1]en[1]yl[3]ylidene)-14,21-methanobenzo[6,7]oxepino[4,5-c]pyrido[1,2-f][1]oxa[5,6,9]triazacyclotridecine-15,17-dione]",> 2000,34,–
"O=C1c2c(O)c(=O)ccn2N2CN1C/C=C\COc1cccc3c1[C@@H]2c1ccccc1OC3 (single isomer, unassigned) [Compound 53B, (21a*S,Z)-16-hydroxy-6,10,13,21a-tetrahydro-7,8-(epiprop[1]en[1]yl[3]ylidene)-14,21-methanobenzo[6,7]oxepino[4,5-c]pyrido[1,2-f][1]oxa[5,6,9]triazacyclotridecine-15,17-dione]",> 2000,> 1000,–
"O=C1c2c(O)c(=O)ccn2N2CN1CCC/C=C\c1ccccc1[C@H]2c1ccccc1 (single isomer, unassigned) [Compound 54A, (16*R,*Z)-4-hydroxy-16-phenyl-7,8,9,16-tetrahydro-6,17-methanobenzo[k]pyrido[1,2-b][1,2,5]triazacyclotridecine-3,5-dione]",> 2000,> 1000,–
"O=C1c2c(O)c(=O)ccn2N2CN1CCC/C=C\c1ccccc1[C@@H]2c1ccccc1 (single isomer, unassigned) [Compound 54B, (16*S,*Z)-4-hydroxy-16-phenyl-7,8,9,16-tetrahydro-6,17-methanobenzo[k]pyrido[1,2-b][1,2,5]triazacyclotridecine-3,5-dione]",> 2000,33,–
"O=C1c2c(O)c(=O)ccn2N2CN1C/C=C\CCc1cnccc1[C@H]2c1ccccc1 (single isomer, unassigned) [Compound 56A, (18*R,*Z)-12-hydroxy-18-phenyl-5,6,9,18-tetrahydro-10,17-methanodipyrido[1,2-b:3′,4′-k][1,2,5]triazacyclotridecine-11,13-dione]",> 2000,> 1000,–
"O=C1c2c(O)c(=O)ccn2N2CN1C/C=C\CCc1cnccc1[C@@H]2c1ccccc1 (single isomer, unassigned) [Compound 56B, (18*S,*Z)-12-hydroxy-18-phenyl-5,6,9,18-tetrahydro-10,17-methanodipyrido[1,2-b:3′,4′-k][1,2,5]triazacyclotridecine-11,13-dione]",> 2000,161,–
"O=C1c2c(O)c(=O)ccn2N2CN1C/C=C/CCc1cc(F)ccc1[C@@H]2c1ccccn1 (single isomer, unassigned) [Compound 57A, (16*R,E)-13-fluoro-4-hydroxy-16-(pyridin-2-yl)-7,10,11,16-tetrahydro-6,17-methanobenzo[k]pyrido[1,2-b][1,2,5]triazacyclotridecine-3,5-dione]",> 2000,32,–
"O=C1c2c(O)c(=O)ccn2N2CN1C/C=C/CCc1cc(F)ccc1[C@H]2c1ccccn1 (single isomer, unassigned) [Compound 57B, (16*S,E)-13-fluoro-4-hydroxy-16-(pyridin-2-yl)-7,10,11,16-tetrahydro-6,17-methanobenzo[k]pyrido[1,2-b][1,2,5]triazacyclotridecine-3,5-dione]",> 2000,> 1000,–
"O=C1c2c(O)c(=O)ccn2N2CN1C/C=C/CCc1cc(F)c(F)cc1[C@@H]2c1ccccn1 (single isomer, unassigned) [Compound 58A, (16*R,E)-13,14-difluoro-4-hydroxy-16-(pyridin-2-yl)-7,10,11,16-tetrahydro-6,17-methanobenzo[k]pyrido[1,2-b][1,2,5]triazacyclotridecine-3,5-dione]",> 2000,44,–
"O=C1c2c(O)c(=O)ccn2N2CN1C/C=C/CCc1cc(F)c(F)cc1[C@H]2c1ccccn1 (single isomer, unassigned) [Compound 58B, (16*S,E)-13,14-difluoro-4-hydroxy-16-(pyridin-2-yl)-7,10,11,16-tetrahydro-6,17-methanobenzo[k]pyrido[1,2-b][1,2,5]triazacyclotridecine-3,5-dione]",> 2000,> 1000,–
"O=C1c2c(O)c(=O)ccn2N2CN1C/C=C\COc1c(F)cccc1[C@@H]2c1cccc(F)c1 (single isomer, unassigned) [Compound 59B, (18*S,Z)-4-fluoro-18-(3-fluorophenyl)-12-hydroxy-6,9-dihydro-18H-10,17-methanobenzo[b]pyrido[1,2-f][1]oxa[5,6,9]triazacyclotridecine-11,13-dione]",> 2000,497,–
"O=C1c2c(O)c(=O)ccn2N2CN1C/C=C\COc1c(F)cccc1[C@H]2c1ccccc1 (single isomer, unassigned) [Compound 61A, (18*R,Z)-4-fluoro-12-hydroxy-18-phenyl-6,9-dihydro-18H-10,17-methanobenzo[b]pyrido[1,2-f][1]oxa[5,6,9]triazacyclotridecine-11,13-dione]",> 2000,5,–
"O=C1c2c(O)c(=O)ccn2N2CN1C/C=C\COc1c(F)cccc1[C@@H]2c1ccccc1 (single isomer, unassigned) [Compound 61B, (18*S,Z)-4-fluoro-12-hydroxy-18-phenyl-6,9-dihydro-18H-10,17-methanobenzo[b]pyrido[1,2-f][1]oxa[5,6,9]triazacyclotridecine-11,13-dione]",> 2000,155,–
"O=C1c2c(O)c(=O)ccn2N2CN1C/C=C\COc1ccccc1[C@H]2c1cccc(F)c1 (single isomer, unassigned) [Compound 63A, (18*R,Z)-18-(3-fluorophenyl)-12-hydroxy-6,9-dihydro-18H-10,17-methanobenzo[b]pyrido[1,2-f][1]oxa[5,6,9]triazacyclotridecine-11,13-dione]",> 2000,> 1000,–
"O=C1c2c(O)c(=O)ccn2N2CN1C/C=C\COc1ccccc1[C@@H]2c1cccc(F)c1 (single isomer, unassigned) [Compound 63B, (18*S,Z)-18-(3-fluorophenyl)-12-hydroxy-6,9-dihydro-18H-10,17-methanobenzo[b]pyrido[1,2-f][1]oxa[5,6,9]triazacyclotridecine-11,13-dione]",> 2000,13,–
"O=C1c2c(O)c(=O)ccn2N2CN1CC/C=C/CCOc1ccccc1[C@H]2c1ccccc1 (single isomer, unassigned) [Compound 65A, (2*R,*Z)-15-hydroxy-2-phenyl-12,13,14,16-tetrahydro-11H-4-oxa-1(1,3)-pyrido[2,1-f][1,2,4]triazina-3(1,2)-benzenacyclodecaphan-7-ene-14,16-dione]",> 10000,> 5000,–
"O=C1c2c(O)c(=O)ccn2N2CN1CC/C=C\CCOc1ccccc1[C@H]2c1ccccc1 (single isomer, unassigned) [Compound 65C, (2*R,*E)-15-hydroxy-2-phenyl-12,13,14,16-tetrahydro-11H-4-oxa-1(1,3)-pyrido[2,1-f][1,2,4]triazina-3(1,2)-benzenacyclodecaphan-7-ene-14,16-dione]",> 20000,7890,–
"O=C1c2c(O)c(=O)ccn2N2CN1CC/C=C/CCOc1ccccc1[C@@H]2c1ccccc1 (single isomer, unassigned) [Compound 65D, (2*S,*E)-15-hydroxy-2-phenyl-12,13,14,16-tetrahydro-11H-4-oxa-1(1,3)-pyrido[2,1-f][1,2,4]triazina-3(1,2)-benzenacyclodecaphan-7-ene-14,16-dione]",> 2000,66,–
"O=C1c2c(O)c(=O)ccn2N2CN1CCC/C=C/COc1ccccc1[C@H]2c1ccccc1 (single isomer, unassigned) [Compound 67A, (2*R,*Z)-15-hydroxy-2-phenyl-12,13,14,16-tetrahydro-11H-4-oxa-1(1,3)-pyrido[2,1-f][1,2,4]triazina-3(1,2)-benzenacyclodecaphan-6-ene-14,16-dione]",> 2000,> 1000,–
"O=C1c2c(O)c(=O)ccn2N2CN1CCC/C=C/COc1ccccc1[C@@H]2c1ccccc1 (single isomer, unassigned) [Compound 67B, (2*S,*Z)-15-hydroxy-2-phenyl-12,13,14,16-tetrahydro-11H-4-oxa-1(1,3)-pyrido[2,1-f][1,2,4]triazina-3(1,2)-benzenacyclodecaphan-6-ene-14,16-dione]",> 2000,> 1000,–
